Assay results as given in PubChem BioAssay (NCI).
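How tested: cells in 96-well plates exposed to compound for 48 hours at five concentrations. Here, GI50 denotes the concentration required for 50% inhibition of growth. TGI marks complete inhibition of growth.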

Experiments:
Assay in all cases: NCI tumour cell line growth inhibition, 48 h; in the data active = GI50 below about 0.43 µM; inactive = the rest
NCI-H522 lung = test system: NCI-H522 lung
NCI-H23 lung = test system: NCI-H23 lung
CCRF-CEM leukemia = test system: CCRF-CEM leukemia
SK-OV-3 ovarian = test system: SK-OV-3 ovarian
HL-60(TB) leukemia = test system: HL-60(TB) leukemia
KM12 colon = test system: KM12 colon
OVCAR-8 ovarian = test system: OVCAR-8 ovarian
COLO 205 colon = test system: COLO 205 colon
SF-268 CNS = test system: SF-268 CNS
HCT-116 colon = test system: HCT-116 colon
MOLT-4 leukemia = test system: MOLT-4 leukemia
MCF7 breast = test system: MCF7 breast
IGROV1 ovarian = test system: IGROV1 ovarian
NCI-H226 lung = test system: NCI-H226 lung
M14 melanoma = test system: M14 melanoma
SF-539 CNS = test system: SF-539 CNS
RPMI-8226 leukemia = test system: RPMI-8226 leukemia
OVCAR-4 ovarian = test system: OVCAR-4 ovarian
SK-MEL-28 melanoma = test system: SK-MEL-28 melanoma
786-0 renal = test system: 786-0 renal
UACC-257 melanoma = test system: UACC-257 melanoma
MALME-3M melanoma = test system: MALME-3M melanoma
RXF 393 renal = test system: RXF 393 renal
DU-145 prostate = test system: DU-145 prostate
HS 578T breast = test system: HS 578T breast
LOX IMVI melanoma = test system: LOX IMVI melanoma
UACC-62 melanoma = test system: UACC-62 melanoma
K-562 leukemia = test system: K-562 leukemia
NCI/ADR-RES ovarian = test system: NCI/ADR-RES ovarian
SF-295 CNS = test system: SF-295 CNS
A549 NSCLC = test system: A549 NSCLC
A498 renal = test system: A498 renal
EKVX NSCLC = test system: EKVX NSCLC
HOP-92 NSCLC = test system: HOP-92 NSCLC
SNB-75 CNS = test system: SNB-75 CNS
PC-3 prostate = test system: PC-3 prostate
U251 CNS = test system: U251 CNS
SK-MEL-5 melanoma = test system: SK-MEL-5 melanoma
TK-10 renal = test system: TK-10 renal
SN12C renal = test system: SN12C renal
HOP-62 NSCLC = test system: HOP-62 NSCLC
BT-549 breast = test system: BT-549 breast
ACHN renal = test system: ACHN renal
HCT-15 colon = test system: HCT-15 colon
OVCAR-3 ovarian = test system: OVCAR-3 ovarian
OVCAR-5 ovarian = test system: OVCAR-5 ovarian
HT29 colon = test system: HT29 colon
MDA-MB-231 breast = test system: MDA-MB-231 breast
MDA-MB-435 = test system: MDA-MB-435
SNB-19 CNS = test system: SNB-19 CNS
NCI-H460 lung = test system: NCI-H460 lung
HCC-2998 colon = test system: HCC-2998 colon
T-47D breast = test system: T-47D breast
SW-620 colon = test system: SW-620 colon
UO-31 renal = test system: UO-31 renal

CCCCCCCCCCCCCCCC(=O)N[C@H](/C=C/[C@H](O)CCCCCCCCCCCCC)CO
inactive: GI50 (NCI-H522 lung) > 100 µM | GI50 (NCI-H23 lung) > 100 µM | GI50 (CCRF-CEM leukemia) > 100 µM | GI50 (SK-OV-3 ovarian) > 100 µM | GI50 (HL-60(TB) leukemia) > 100 µM | GI50 (KM12 colon) > 100 µM | GI50 (OVCAR-8 ovarian) > 100 µM | GI50 (COLO 205 colon) > 100 µM | GI50 (SF-268 CNS) > 100 µM | GI50 (HCT-116 colon) > 100 µM | GI50 (MOLT-4 leukemia) > 100 µM | GI50 (MCF7 breast) > 100 µM | GI50 (IGROV1 ovarian) > 100 µM | GI50 (NCI-H226 lung) > 100 µM | GI50 (M14 melanoma) > 100 µM | GI50 (SF-539 CNS) > 100 µM | GI50 (RPMI-8226 leukemia) 884 nM | GI50 (OVCAR-4 ovarian) > 100 µM | GI50 (SK-MEL-28 melanoma) > 100 µM | GI50 (786-0 renal) > 100 µM | GI50 (UACC-257 melanoma) > 100 µM | GI50 (MALME-3M melanoma) > 100 µM | GI50 (RXF 393 renal) > 100 µM | GI50 (DU-145 prostate) > 100 µM | GI50 (HS 578T breast) > 100 µM | GI50 (LOX IMVI melanoma) > 100 µM | GI50 (UACC-62 melanoma) > 100 µM | GI50 (K-562 leukemia) > 100 µM | GI50 (NCI/ADR-RES ovarian) > 100 µM | GI50 (SF-295 CNS) > 100 µM | GI50 (A549 NSCLC) > 100 µM | GI50 (A498 renal) > 100 µM | GI50 (EKVX NSCLC) > 100 µM | GI50 (HOP-92 NSCLC) > 100 µM | GI50 (SNB-75 CNS) > 100 µM | GI50 (PC-3 prostate) > 100 µM | GI50 (U251 CNS) > 100 µM | GI50 (SK-MEL-5 melanoma) > 100 µM | GI50 (TK-10 renal) > 100 µM | GI50 (SN12C renal) > 100 µM | GI50 (HOP-62 NSCLC) > 100 µM | GI50 (BT-549 breast) > 100 µM | GI50 (ACHN renal) > 100 µM | GI50 (HCT-15 colon) > 100 µM | GI50 (OVCAR-3 ovarian) > 100 µM | GI50 (OVCAR-5 ovarian) > 100 µM | GI50 (HT29 colon) > 100 µM | GI50 (MDA-MB-231 breast) > 100 µM | GI50 (MDA-MB-435) > 100 µM | GI50 (SNB-19 CNS) > 100 µM | GI50 (NCI-H460 lung) > 100 µM | GI50 (HCC-2998 colon) > 100 µM | GI50 (T-47D breast) > 100 µM | GI50 (SW-620 colon) > 100 µM | GI50 (UO-31 renal) > 100 µM
> 100 µM: TGI (NCI-H522 lung) | TGI (NCI-H23 lung) | TGI (CCRF-CEM leukemia) | TGI (SK-OV-3 ovarian) | TGI (HL-60(TB) leukemia) | TGI (KM12 colon) | TGI (OVCAR-8 ovarian) | TGI (COLO 205 colon) | TGI (SF-268 CNS) | TGI (HCT-116 colon) | TGI (MOLT-4 leukemia) | TGI (MCF7 breast) | TGI (IGROV1 ovarian) | TGI (NCI-H226 lung) | TGI (M14 melanoma) | TGI (SF-539 CNS) | TGI (RPMI-8226 leukemia) | TGI (OVCAR-4 ovarian) | TGI (SK-MEL-28 melanoma) | TGI (786-0 renal) | TGI (UACC-257 melanoma) | TGI (MALME-3M melanoma) | TGI (RXF 393 renal) | TGI (DU-145 prostate) | TGI (HS 578T breast) | TGI (LOX IMVI melanoma) | TGI (UACC-62 melanoma) | TGI (K-562 leukemia) | TGI (NCI/ADR-RES ovarian) | TGI (SF-295 CNS) | TGI (A549 NSCLC) | TGI (A498 renal) | TGI (EKVX NSCLC) | TGI (HOP-92 NSCLC) | TGI (SNB-75 CNS) | TGI (PC-3 prostate) | TGI (U251 CNS) | TGI (SK-MEL-5 melanoma) | TGI (TK-10 renal) | TGI (SN12C renal) | TGI (HOP-62 NSCLC) | TGI (BT-549 breast) | TGI (ACHN renal) | TGI (HCT-15 colon) | TGI (OVCAR-3 ovarian) | TGI (OVCAR-5 ovarian) | TGI (HT29 colon) | TGI (MDA-MB-231 breast) | TGI (MDA-MB-435) | TGI (SNB-19 CNS) | TGI (NCI-H460 lung) | TGI (HCC-2998 colon) | TGI (T-47D breast) | TGI (SW-620 colon) | TGI (UO-31 renal)
